How the values were obtained:
C2C12 murine myotubes = conditions: in vitro, phage display; cited from earlier work
mouse muscle tissue = conditions: cited from earlier work
DMPK [1] = assay: Dose response of antisense oligonucleotides in DMPK knockdown in human DM1 myotubes; assay type: cell-based
From the text: FIGS. 18A-18C depict non-limiting schematics showing the dose response of selected antisense oligonucleotides in DMPK knockdown in human DM1 myotubes. ControlDMPK-ASO was used as control. […] Statistical analysis: One-way ANOVA with Tukey's HSD post-hoc test vs. control DMPK-ASO treatment; *p<0.05, **p<0.01, ***p<0.001, ****p<0.0001.
(§1) The antisense oligonucleotides listed in Table 11 were further assessed to identify oligos that are safe in vivo (e.g., as indicated by low immunogenicity as measured by cytokine induction), and further based on manufacturability and secondary structure considerations. Three antisense oligonucleotides from Table 11, […] (SEQ ID NO: 310, DMPK-ASO-1), […] (SEQ ID NO: 320, DMPK-ASO-2), and […] (SEQ ID NO: 278, DMPK-ASO-3) were selected. These oligonucleotides were then further evaluated for their ability to reduce DMPK expression in DM1 myotubes and NHP myotubes in a dose-responsive manner. The tool compound (control DMPK-ASO) was used as control.

DMPK [2] = assay: Dose response of antisense oligonucleotides in DMPK knockdown in NHP myotubes; assay type: cell-based, non-human primate
From the text: FIGS. 19A-19B depict non-limiting schematics showing the dose response of selected antisense oligonucleotides in DMPK knockdown in non-human primate (NHP) DM1 myotubes. Control DMPK-ASO was used as control.
as §1

DMPK [3] = assay: DMPK expression in RD cells treated with free or transfected DMPK-targeting oligonucleotides; assay type: cell-based; conditions: free (gymnotic) or transfected, 3 days
Description: The duration of treatment was 3 days. DMPK-targeting oligonucleotides were delivered to the cells as free oligonucleotides (gymnotic uptake, “free”) or with transfection reagent (“trans”).
DMPK-targeting oligonucleotides (e.g., ASO) were tested in rhabdomyosarcoma (RD) cells for knockdown of DMPK transcript expression. RD cells were cultured in a growth medium of DMEM with glutamine, supplemented with 10% FBS and penicillin/streptomycin until nearly confluent. Cells were then seeded into a 96 well plate at 20K cells per well and were allowed to recover for 24 hours. Cells were then treated with free DMPK-targeting oligonucleotides or by transfection of the oligonucleotides using 0.3 μL per well of Lipofectamine MessengerMAX transfection reagent. After 3 days, total RNA was collected from cells, cDNA was synthesized and DPMK expression was measured by qPCR.

Substance | binding to C2C12 cells (C2C12 murine myotubes) | specificity for binding to heart and skeletal muscle tissue (mouse muscle tissue; after intravenous injection in mice, reduced binding to liver, kidney, and brain) | binding to mouse muscle tissue (mouse muscle tissue; in vivo) | DMPK knockdown in DM1 myotubes (DMPK [1]) | DMPK knockdown in NHP myotubes (DMPK [2]) | DMPK expression level relative to PBS-treated cells (DMPK [3])
ASSLNIA [muscle-specific heptapeptide identified by phage display] | bound to C2C12 murine myotubes in vitro | improved specificity for binding to heart and skeletal muscle tissue | bound to mouse muscle tissue in vivo | – | – | –
CCAUCUCGGCCGGAAUCCGC (chemistry not given here) [SEQ ID NO: 278, DMPK-targeting antisense oligonucleotide] | – | – | – | dose-dependently reducing DMPK | dose-dependently reducing DMPK | reduced
CCCAGCGCCCACCAGUCACA (chemistry not given here) [SEQ ID NO: 320, DMPK-targeting antisense oligonucleotide] | – | – | – | dose-dependently reducing DMPK | dose-dependently reducing DMPK | reduced
GCGUAGAAGGGCGUCUGCCC (chemistry not given here) [SEQ ID NO: 310, DMPK-targeting antisense oligonucleotide] | – | – | – | dose-dependently reducing DMPK | dose-dependently reducing DMPK | reduced
SKTFNTHPQSTP [12 amino acid muscle-targeting peptide identified by phage display] | improved binding to C2C12 cells relative to the ASSLNIA | – | – | – | – | –

From US20230144436A1, “MUSCLE TARGETING COMPLEXES AND USES THEREOF FOR TREATING MYOTONIC DYSTROPHY” (Dyne Therapeutics, Inc., priority 2020, published 2023)
